For assay [1], the target named is T1, ALK1 (GST-modified kinase domain ACVRL1 (139-503)) (Homo sapiens, UniProt P37023).
T1 construct: N-terminally GST-modified kinase domain ACVRL1 (139-503); GST (N)
T1 sequence (P37023 139-503): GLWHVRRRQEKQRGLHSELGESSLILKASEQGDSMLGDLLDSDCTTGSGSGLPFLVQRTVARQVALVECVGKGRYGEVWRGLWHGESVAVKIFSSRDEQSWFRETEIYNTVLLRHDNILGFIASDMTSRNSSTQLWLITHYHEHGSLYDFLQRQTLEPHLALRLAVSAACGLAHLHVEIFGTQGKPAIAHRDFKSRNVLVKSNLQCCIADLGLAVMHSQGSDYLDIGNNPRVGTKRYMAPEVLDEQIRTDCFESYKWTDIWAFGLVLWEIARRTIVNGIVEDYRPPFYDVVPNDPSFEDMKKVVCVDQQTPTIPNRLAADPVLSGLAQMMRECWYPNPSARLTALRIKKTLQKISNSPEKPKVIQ
The assay can be described thus: ALK1 kinase inhibition assay (33P-ATP filter binding, Reaction Biology). It is filed as biochemical. To be noted: casein substrate, 100 μM ATP (Km ATP), 120 min ambient temperature. Here is the method:
(§1) The protein sequences of the kinases targeted and accompanying information are described in publically available data base http://www.uniprot.org/uniprot/for ALK1 www.uniprot.org/uniprot/P37023, for ALK2 www.uniprot.org/uniprot/Q04771 and for ALK5 www.uniprot.org/uniprot/P36897. IC50 determination of the novel inhibitors described was performed at Reaction Biology Corp., Malvern, Pa., USA, with assay conditions open to public at www.reactionbiology.com/webapps/site/KinaseDetail.aspx?page=Kinases&id=1, and www.reactionbiology.com/webapps/site/Kinase Assay Protocol.aspx. In addition, they were specified previously in Anastassiadis et al. Nat. Biotechnol. 29(11): 1039-1045. doi:10.1038/nbt.2017.
A1) ALK1 Kinase Inhibition Assay
(§2) was performed with N-terminally GST-modified kinase domain ACVRL1 (139-503) and 20 mg/ml Casein as substrate in reaction buffer of 20 mM HEPES pH 7.5, 10 mM MgCl2, 1 mM EGTA, 0.02% Brij, 0.02 mg/ml BSA, 0.1 mM Na3VO4, 2 mM DTT, 1% DMSO. […] Reactions were carried out at ambient temperature for 120 min, followed by spotting of the reactions onto P81 ion exchange filter paper (Whatman Inc., Picataway, N.J., USA). Unbound phosphate was removed by extensive washing of filters in 0.75% phosphoric acid. After subtraction of background derived from control reactions without enzyme activity, kinase activity data was expressed as the percent remaining kinase activity in test samples compared to vehicle (DMSO) reactions. IC50 values and curve fits were obtained using Prism (GraphPad Software).

Assay [2] concerns the target T2, ALK2 (GST-modified kinase domain ACVR1(145-509)) (Homo sapiens, UniProt Q04771).
T2 construct: N-terminally GST-modified kinase domain ACVR1(145-509); GST (N)
T2 sequence (Q04771 145-509): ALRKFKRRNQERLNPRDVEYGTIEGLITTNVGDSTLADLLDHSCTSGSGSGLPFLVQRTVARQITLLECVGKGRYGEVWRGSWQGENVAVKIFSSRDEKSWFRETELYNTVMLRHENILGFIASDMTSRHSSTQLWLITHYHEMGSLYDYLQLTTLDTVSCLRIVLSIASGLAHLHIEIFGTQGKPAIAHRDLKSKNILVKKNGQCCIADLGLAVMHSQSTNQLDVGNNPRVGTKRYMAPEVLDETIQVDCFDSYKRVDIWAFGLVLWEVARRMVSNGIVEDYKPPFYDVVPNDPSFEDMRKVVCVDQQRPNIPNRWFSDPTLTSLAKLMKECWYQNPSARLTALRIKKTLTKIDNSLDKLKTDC
The assay can be described thus: ALK2 kinase inhibition assay (33P-ATP filter binding, Reaction Biology). It is filed as biochemical. Conditions: casein substrate, 20 μM ATP (Km ATP), 120 min ambient temperature. The method, then: as §1
A2) ALK2 Kinase Inhibition Assay
as §2, with “performed similar to procedure A1” for “performed”, “domain ACVR1(145-509)” for “domain ACVRL1 (139-503)”, “and 1” for “and 20”

Assay [3] addresses T3, ALK5 (TGFβR1; GST-modified TGFBR1 (200-503)) (Homo sapiens, UniProt P36897).
T3 construct: Using GST-Modified TGFBR1 (200-503); GST
T3 sequence (P36897 200-503): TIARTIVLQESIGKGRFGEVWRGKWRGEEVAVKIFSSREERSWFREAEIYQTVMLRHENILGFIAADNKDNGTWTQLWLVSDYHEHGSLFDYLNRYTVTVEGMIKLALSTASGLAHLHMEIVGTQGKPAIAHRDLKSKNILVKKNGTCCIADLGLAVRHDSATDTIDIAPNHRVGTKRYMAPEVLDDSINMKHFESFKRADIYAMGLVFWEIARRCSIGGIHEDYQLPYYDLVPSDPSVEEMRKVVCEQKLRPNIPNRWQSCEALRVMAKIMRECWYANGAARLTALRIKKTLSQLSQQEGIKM
The assay can be described thus: ALK5 kinase inhibition assay (33P-ATP filter binding, Reaction Biology). In kind it is biochemical. Conditions: casein substrate, 200 μM ATP. Here is the method: as §1
A3) ALK5 Kinase Inhibition Assay Was Performed Similar to Procedures A1 and A2 Using GST-Modified TGFBR1 (200-503) and 1 mg/ml Casein as Substrate at 200 μM ATP.

The test system of assay [4] is ALK1-mediated SMAD1/5 phosphorylation in HUVEC cells. Description: Cell-based immunofluorescence assay for ALK1-mediated SMAD1/5 phosphorylation in HUVEC cells. To be noted: Homo sapiens, 1.5 ng/ml BMP-9 with compound for 2 h, % nuclei with pSMAD1/5 signal, read-out: Smad 1/5 IC50. The text has this:
In vitro cell-based Immunofluorescence-Assay for identification of inhibitors of ALK1-mediated SMAD1/5 phosphorylation in HUVEC cells:
ALK1 is a type I cell-surface receptor for the TGF-β superfamily of ligands. In adults ALK1 is mainly expressed on activated endothelial cells, e.g. during wound healing or in tumor angiogenesis. BMP9 and BMP10 are high affinity ligands for ALK1.
BMP9 and BMP10 binding leads to the phosphorylation of so-called Smad1 at Ser463 and Ser465 in the carboxy-terminal motif SSXS, as well as Smad5 and Smad8 at their corresponding sites. These phosphorylated Smads dimerize with the coactivating Smad4 and translocate to the nucleus, where they stimulate transcription of target genes.
Primary endothelial cells (HUVEC: Human Umbilical Vein Endothelial Cells; supplier Promocell) are cultivated in the culture medium obtained from Promocell (with supplements corresponding to 5% FCS) for maximum 5 passages, seeded into black 384-well culture plates with clear bottom (3000 cells/well/30 μl), and incubated for 16-24 hours at 37° C., 5% CO2 and 90% rH.
The following day cells were serum-starved for 2-3 h in order to stop TGF-ß-mediated signalling derived from ligands present in FBS. 1.5 ng/ml BMP-9 was than added in parallel with test compounds for 2 h at 37° C., 5% CO2 in order to identify compounds which block functional activity of ALK1 leading to phosphorylation and nuclear translocation of SMAD1/5/8.
After fixation (15 min 4% Formaldehyd in PBS) and permeabilization (10 min 0.2% Triton X-100 in PBS) an indirect immunocytochemical staining is performed with a specific Phospho-Smad1/5 (Ser463/465) antibody (Cell Signaling #9516) and Alexa488-labelled secondary anti-rabbit-IgG-antibody. DNA staining with Propidium Iodide allowed parallel cell counting. Image acquisition and analysis was performed on an MDS ImageXpress Ultra confocal High Content Reader using the image analysis software MetaXpress. Final read-out were % nuclei with a pSMAD1/5 signal above a defined background.
The final DMSO concentration in the assay was 0.5%. DMSO-treated HUVEC cells served as neutral control (=0%) and cells treated with 10 μM of a reference inhibitor described in a patent served as inhibitor control (=−100%). Raw data were normalised to the neutral and inhibitory references. The assay was performed as dose response (10 compound dilutions, 1 nM-30 μM).

Here are results for eleven molecules from patent publication US10179777B2, “3-(1H-benzimidazol-2-yl)-1H-pyridin-2-one derivatives” (MERCK PATENT GMBH, priority 2015, dated 2019).

Counter-ions that a name gives are not always drawn.

As for `O=c1[nH]cc(-c2cccc(CO)c2)cc1-c1nc2cc(N3CCCNCC3)ccc2[nH]1` [Compound A17, 3-(5-[1,4]Diazepan-1-yl-1H-benzimidazol-2-yl)-5-(3-hydroxymethyl-phenyl)-1H-pyridin-2-one], the IC50 in assay [1] is 27 nM; in assay [2], 25 nM; in assay [3] it was 3300 nM; in assay [4], 2500 nM.
For `O=c1[nH]cc(-c2ccc(F)c(CO)c2)cc1-c1nc2cc(N3CCNCC3)ccc2[nH]1` [Compound A20, 5-(4-Fluoro-3-hydroxymethyl-phenyl)-3-(5-piperazin-1-yl-1H-benzimidazol-2-yl)-1H-pyridin-2-one] the same measures were 24 nM, 19 nM, 4400 nM and 7800 nM.
With `O=c1[nH]cc(-c2cc(F)c(CO)c(F)c2)cc1-c1nc2cc(N3CCNCC3)ccc2[nH]1` [Compound A21, 5-(3,5-Difluoro-4-hydroxymethyl-phenyl)-3-(5-piperazin-1-yl-1H-benzimidazol-2-yl)-1H-pyridin-2-one dihydrochloride], the IC50 in assay [1] amounted to 8.6 nM; in assay [2], 23 nM; in assay [3] it was 5100 nM; in assay [4] it was 6100 nM.
On to `O=c1[nH]cc(-c2cc(CO)ccc2Cl)cc1-c1nc2cc(N3CCNCC3)ccc2[nH]1` [Compound A22, 5-(2-Chloro-5-hydroxymethyl-phenyl)-3-(5-piperazin-1-yl-1H-benzimidazol-2-yl)-1H-pyridin-2-one dihydrochloride], for which the IC50 worked out at 3.5 nM in assay [1], 16 nM in assay [2], 2100 nM in assay [3] and 3300 nM in assay [4].
As to `O=c1[nH]cc(-c2cccc(CO)c2F)cc1-c1nc2cc(N3CCNCC3)ccc2[nH]1` [Compound A23, 5-(2-Fluoro-3-hydroxymethyl-phenyl)-3-(5-piperazin-1-yl-1H-benzimidazol-2-yl)-1H-pyridin-2-one], the IC50 in assay [1] came to 2 nM; in assay [2] it was 22 nM; in assay [3], 1600 nM; in assay [4], 130 nM.
Take `NC1CCN(c2ccc3[nH]c(-c4cc(-c5cccc(CO)c5)c[nH]c4=O)nc3c2)CC1` [Compound A26, 3-[5-(4-Amino-piperidin-1-yl)-1H-benzimidazol-2-yl]-5-(3-hydroxymethyl-phenyl)-1H-pyridin-2-one dihydrochloride]: the IC50 in assay [1] stood at 5 nM; in assay [2], 31 nM; in assay [3], 1900 nM; in assay [4], 1800 nM.
For `CN1CCN(c2ccc3[nH]c(-c4cc(-c5cccc(CO)c5)c[nH]c4=O)nc3c2)CC1` [Compound A27, 5-(3-Hydroxymethyl-phenyl)-3-[5-(4-methyl-piperazin-1-yl)-1H-benzimidazol-2-yl]-1H-pyridin-2-one] the same measures were 13 nM, 12 nM, 1700 nM and 450 nM.
For `CN1CCN(c2ccc3[nH]c(-c4cc(-c5ccnc6ccccc56)c[nH]c4=O)nc3c2)CC1` [Compound A29, 3-[5-(4-Methyl-piperazin-1-yl)-1H-benzimidazol-2-yl]-5-quinolin-4-yl-1H-pyridin-2-one] the same measures were 92 nM, 63 nM, 1700 nM and 3700 nM.
Take `CN1CCCN(c2ccc3[nH]c(-c4cc(-c5cccc(CO)c5)c[nH]c4=O)nc3c2)CC1` [Compound A33, 5-(3-Hydroxymethyl-phenyl)-3-[5-(4-methyl-[1,4]diazepan-1-yl)-1H-benzimidazol-2-yl]-1H-pyridin-2-one]: the IC50 came to 14 nM in assay [1], 11 nM in assay [2], 1900 nM in assay [3] and 900 nM in assay [4].
Turning to `CN1CCN(c2ccc3[nH]c(-c4cc(-c5ccc(F)c(CO)c5)c[nH]c4=O)nc3c2)CC1` [Compound A34, 5-(4-Fluoro-3-hydroxymethyl-phenyl)-3-[5-(4-methyl-piperazin-1-yl)-1H-benzimidazol-2-yl]-1H-pyridin-2-one], the IC50 in assay [1] is 30 nM; in assay [2] it was 20 nM; in assay [3] it was 4800 nM; in assay [4], 2000 nM.
For `CN1CCN(c2ccc3[nH]c(-c4cc(-c5ccc(CO)cc5)c[nH]c4=O)nc3c2)CC1` [Compound A35, 5-(4-Hydroxymethyl-phenyl)-3-[5-(4-methyl-piperazin-1-yl)-1H-benzimidazol-2-yl]-1H-pyridin-2-one] the same measures were 16 nM, 11 nM, 3200 nM and 720 nM.
